Measured values from the OligoGym collection.
Oligonucleotides are given in HELM: sugar(base)linkage, 5' to 3'; d 2'-deoxyribose, r ribose, m 2'-O-methylribose, p phosphate. ss, as = sense and antisense strand

Molecular target: SOST
Assay: reporter assay of Huesken 2005
Conditions: siRNA
Also: test concentration or dose not given here.

Substance	normalised inhibition (eCFP-eYFP dual reporter)
RNA1{r(G)p.r(U)p.r(G)p.r(U)p.r(C)p.r(C)p.r(C)p.r(G)p.r(G)p.r(U)p.r(G)p.r(G)p.r(U)p.r(G)p.r(A)p.r(G)p.r(G)p.r(C)p.r(G)p.d(T)p.d(T)}|RNA2{r(C)p.r(G)p.r(C)p.r(C)p.r(U)p.r(C)p.r(A)p.r(C)p.r(C)p.r(A)p.r(C)p.r(C)p.r(G)p.r(G)p.r(G)p.r(A)p.r(C)p.r(A)p.r(C)p.d(A)p.d(G)}$$$RNA1{StrandType:ss}|RNA2{StrandType:as}$	62.9%
RNA1{r(C)p.r(A)p.r(A)p.r(G)p.r(U)p.r(G)p.r(G)p.r(U)p.r(G)p.r(G)p.r(C)p.r(G)p.r(A)p.r(C)p.r(C)p.r(U)p.r(A)p.r(G)p.r(U)p.d(T)p.d(T)}|RNA2{r(A)p.r(C)p.r(U)p.r(A)p.r(G)p.r(G)p.r(U)p.r(C)p.r(G)p.r(C)p.r(C)p.r(A)p.r(C)p.r(C)p.r(A)p.r(C)p.r(U)p.r(U)p.r(G)p.d(C)p.d(C)}$$$RNA1{StrandType:ss}|RNA2{StrandType:as}$	64.5%
RNA1{r(G)p.r(C)p.r(U)p.r(A)p.r(C)p.r(C)p.r(G)p.r(C)p.r(G)p.r(C)p.r(G)p.r(C)p.r(A)p.r(G)p.r(C)p.r(G)p.r(C)p.r(G)p.r(U)p.d(T)p.d(T)}|RNA2{r(A)p.r(C)p.r(G)p.r(C)p.r(G)p.r(C)p.r(U)p.r(G)p.r(C)p.r(G)p.r(C)p.r(G)p.r(C)p.r(G)p.r(G)p.r(U)p.r(A)p.r(G)p.r(C)p.d(G)p.d(G)}$$$RNA1{StrandType:ss}|RNA2{StrandType:as}$	51.8%
RNA1{r(C)p.r(A)p.r(A)p.r(G)p.r(U)p.r(G)p.r(C)p.r(A)p.r(A)p.r(G)p.r(C)p.r(G)p.r(C)p.r(C)p.r(U)p.r(C)p.r(A)p.r(C)p.r(C)p.d(T)p.d(T)}|RNA2{r(G)p.r(G)p.r(U)p.r(G)p.r(A)p.r(G)p.r(G)p.r(C)p.r(G)p.r(C)p.r(U)p.r(U)p.r(G)p.r(C)p.r(A)p.r(C)p.r(U)p.r(U)p.r(G)p.d(C)p.d(A)}$$$RNA1{StrandType:ss}|RNA2{StrandType:as}$	68.8%
RNA1{r(G)p.r(U)p.r(G)p.r(G)p.r(A)p.r(G)p.r(G)p.r(G)p.r(C)p.r(C)p.r(A)p.r(G)p.r(G)p.r(G)p.r(G)p.r(U)p.r(G)p.r(G)p.r(C)p.d(T)p.d(T)}|RNA2{r(G)p.r(C)p.r(C)p.r(A)p.r(C)p.r(C)p.r(C)p.r(C)p.r(U)p.r(G)p.r(G)p.r(C)p.r(C)p.r(C)p.r(U)p.r(C)p.r(C)p.r(A)p.r(C)p.d(T)p.d(A)}$$$RNA1{StrandType:ss}|RNA2{StrandType:as}$	52.8%
RNA1{r(G)p.r(A)p.r(A)p.r(C)p.r(G)p.r(G)p.r(A)p.r(G)p.r(G)p.r(G)p.r(C)p.r(G)p.r(G)p.r(C)p.r(C)p.r(U)p.r(C)p.r(C)p.r(C)p.d(T)p.d(T)}|RNA2{r(G)p.r(G)p.r(G)p.r(A)p.r(G)p.r(G)p.r(C)p.r(C)p.r(G)p.r(C)p.r(C)p.r(C)p.r(U)p.r(C)p.r(C)p.r(G)p.r(U)p.r(U)p.r(C)p.d(T)p.d(C)}$$$RNA1{StrandType:ss}|RNA2{StrandType:as}$	52.6%
RNA1{r(A)p.r(G)p.r(G)p.r(U)p.r(G)p.r(C)p.r(G)p.r(C)p.r(C)p.r(U)p.r(G)p.r(G)p.r(U)p.r(G)p.r(G)p.r(C)p.r(C)p.r(U)p.r(C)p.d(T)p.d(T)}|RNA2{r(G)p.r(A)p.r(G)p.r(G)p.r(C)p.r(C)p.r(A)p.r(C)p.r(C)p.r(A)p.r(G)p.r(G)p.r(C)p.r(G)p.r(C)p.r(A)p.r(C)p.r(C)p.r(U)p.d(T)p.d(G)}$$$RNA1{StrandType:ss}|RNA2{StrandType:as}$	71.2%
RNA1{r(U)p.r(G)p.r(C)p.r(A)p.r(A)p.r(G)p.r(C)p.r(G)p.r(C)p.r(C)p.r(U)p.r(C)p.r(A)p.r(C)p.r(C)p.r(C)p.r(G)p.r(C)p.r(U)p.d(T)p.d(T)}|RNA2{r(A)p.r(G)p.r(C)p.r(G)p.r(G)p.r(G)p.r(U)p.r(G)p.r(A)p.r(G)p.r(G)p.r(C)p.r(G)p.r(C)p.r(U)p.r(U)p.r(G)p.r(C)p.r(A)p.d(C)p.d(T)}$$$RNA1{StrandType:ss}|RNA2{StrandType:as}$	66.2%
RNA1{r(G)p.r(C)p.r(U)p.r(C)p.r(C)p.r(G)p.r(G)p.r(C)p.r(C)p.r(A)p.r(G)p.r(U)p.r(G)p.r(C)p.r(G)p.r(G)p.r(C)p.r(C)p.r(C)p.d(T)p.d(T)}|RNA2{r(G)p.r(G)p.r(G)p.r(C)p.r(C)p.r(G)p.r(C)p.r(A)p.r(C)p.r(U)p.r(G)p.r(G)p.r(C)p.r(C)p.r(G)p.r(G)p.r(A)p.r(G)p.r(C)p.d(A)p.d(C)}$$$RNA1{StrandType:ss}|RNA2{StrandType:as}$	53%
RNA1{r(C)p.r(C)p.r(G)p.r(U)p.r(G)p.r(U)p.r(A)p.r(G)p.r(U)p.r(G)p.r(G)p.r(A)p.r(G)p.r(G)p.r(G)p.r(C)p.r(C)p.r(A)p.r(G)p.d(T)p.d(T)}|RNA2{r(C)p.r(U)p.r(G)p.r(G)p.r(C)p.r(C)p.r(C)p.r(U)p.r(C)p.r(C)p.r(A)p.r(C)p.r(U)p.r(A)p.r(C)p.r(A)p.r(C)p.r(G)p.r(G)p.d(A)p.d(A)}$$$RNA1{StrandType:ss}|RNA2{StrandType:as}$	55.2%
RNA1{r(A)p.r(A)p.r(A)p.r(U)p.r(C)p.r(A)p.r(U)p.r(C)p.r(C)p.r(C)p.r(C)p.r(G)p.r(A)p.r(G)p.r(C)p.r(U)p.r(C)p.r(G)p.r(G)p.d(T)p.d(T)}|RNA2{r(C)p.r(C)p.r(G)p.r(A)p.r(G)p.r(C)p.r(U)p.r(C)p.r(G)p.r(G)p.r(G)p.r(G)p.r(A)p.r(U)p.r(G)p.r(A)p.r(U)p.r(U)p.r(U)p.d(C)p.d(C)}$$$RNA1{StrandType:ss}|RNA2{StrandType:as}$	49.8%
RNA1{r(A)p.r(A)p.r(G)p.r(A)p.r(C)p.r(G)p.r(U)p.r(G)p.r(U)p.r(C)p.r(C)p.r(G)p.r(A)p.r(G)p.r(U)p.r(A)p.r(C)p.r(A)p.r(G)p.d(T)p.d(T)}|RNA2{r(C)p.r(U)p.r(G)p.r(U)p.r(A)p.r(C)p.r(U)p.r(C)p.r(G)p.r(G)p.r(A)p.r(C)p.r(A)p.r(C)p.r(G)p.r(U)p.r(C)p.r(U)p.r(U)p.d(T)p.d(G)}$$$RNA1{StrandType:ss}|RNA2{StrandType:as}$	87.1%
RNA1{r(G)p.r(C)p.r(U)p.r(G)p.r(C)p.r(A)p.r(C)p.r(U)p.r(U)p.r(C)p.r(A)p.r(C)p.r(C)p.r(C)p.r(G)p.r(C)p.r(U)p.r(A)p.r(C)p.d(T)p.d(T)}|RNA2{r(G)p.r(U)p.r(A)p.r(G)p.r(C)p.r(G)p.r(G)p.r(G)p.r(U)p.r(G)p.r(A)p.r(A)p.r(G)p.r(U)p.r(G)p.r(C)p.r(A)p.r(G)p.r(C)p.d(T)p.d(C)}$$$RNA1{StrandType:ss}|RNA2{StrandType:as}$	75.4%
RNA1{r(G)p.r(A)p.r(G)p.r(G)p.r(G)p.r(C)p.r(C)p.r(A)p.r(G)p.r(G)p.r(G)p.r(G)p.r(U)p.r(G)p.r(G)p.r(C)p.r(A)p.r(G)p.r(G)p.d(T)p.d(T)}|RNA2{r(C)p.r(C)p.r(U)p.r(G)p.r(C)p.r(C)p.r(A)p.r(C)p.r(C)p.r(C)p.r(C)p.r(U)p.r(G)p.r(G)p.r(C)p.r(C)p.r(C)p.r(U)p.r(C)p.d(C)p.d(A)}$$$RNA1{StrandType:ss}|RNA2{StrandType:as}$	71.1%
RNA1{r(A)p.r(C)p.r(C)p.r(G)p.r(G)p.r(A)p.r(G)p.r(C)p.r(U)p.r(G)p.r(G)p.r(A)p.r(G)p.r(A)p.r(A)p.r(C)p.r(A)p.r(A)p.r(C)p.d(T)p.d(T)}|RNA2{r(G)p.r(U)p.r(U)p.r(G)p.r(U)p.r(U)p.r(C)p.r(U)p.r(C)p.r(C)p.r(A)p.r(G)p.r(C)p.r(U)p.r(C)p.r(C)p.r(G)p.r(G)p.r(U)p.d(G)p.d(G)}$$$RNA1{StrandType:ss}|RNA2{StrandType:as}$	83.3%
RNA1{r(G)p.r(C)p.r(C)p.r(C)p.r(A)p.r(A)p.r(C)p.r(G)p.r(C)p.r(C)p.r(A)p.r(U)p.r(C)p.r(G)p.r(G)p.r(C)p.r(C)p.r(G)p.r(C)p.d(T)p.d(T)}|RNA2{r(G)p.r(C)p.r(G)p.r(G)p.r(C)p.r(C)p.r(G)p.r(A)p.r(U)p.r(G)p.r(G)p.r(C)p.r(G)p.r(U)p.r(U)p.r(G)p.r(G)p.r(G)p.r(C)p.d(A)p.d(G)}$$$RNA1{StrandType:ss}|RNA2{StrandType:as}$	64.3%
RNA1{r(U)p.r(C)p.r(G)p.r(G)p.r(A)p.r(G)p.r(C)p.r(U)p.r(C)p.r(A)p.r(A)p.r(G)p.r(G)p.r(A)p.r(C)p.r(U)p.r(U)p.r(C)p.r(G)p.d(T)p.d(T)}|RNA2{r(C)p.r(G)p.r(A)p.r(A)p.r(G)p.r(U)p.r(C)p.r(C)p.r(U)p.r(U)p.r(G)p.r(A)p.r(G)p.r(C)p.r(U)p.r(C)p.r(C)p.r(G)p.r(A)p.d(C)p.d(T)}$$$RNA1{StrandType:ss}|RNA2{StrandType:as}$	61.8%
RNA1{r(G)p.r(C)p.r(C)p.r(G)p.r(C)p.r(G)p.r(C)p.r(G)p.r(C)p.r(G)p.r(C)p.r(G)p.r(C)p.r(A)p.r(A)p.r(G)p.r(G)p.r(U)p.r(G)p.d(T)p.d(T)}|RNA2{r(C)p.r(A)p.r(C)p.r(C)p.r(U)p.r(U)p.r(G)p.r(C)p.r(G)p.r(C)p.r(G)p.r(C)p.r(G)p.r(C)p.r(G)p.r(C)p.r(G)p.r(G)p.r(C)p.d(G)p.d(C)}$$$RNA1{StrandType:ss}|RNA2{StrandType:as}$	57.1%
RNA1{r(U)p.r(C)p.r(A)p.r(A)p.r(G)p.r(G)p.r(A)p.r(C)p.r(U)p.r(U)p.r(C)p.r(G)p.r(G)p.r(G)p.r(A)p.r(C)p.r(C)p.r(G)p.r(A)p.d(T)p.d(T)}|RNA2{r(U)p.r(C)p.r(G)p.r(G)p.r(U)p.r(C)p.r(C)p.r(C)p.r(G)p.r(A)p.r(A)p.r(G)p.r(U)p.r(C)p.r(C)p.r(U)p.r(U)p.r(G)p.r(A)p.d(G)p.d(C)}$$$RNA1{StrandType:ss}|RNA2{StrandType:as}$	61.3%
RNA1{r(C)p.r(G)p.r(U)p.r(G)p.r(U)p.r(C)p.r(C)p.r(G)p.r(A)p.r(G)p.r(U)p.r(A)p.r(C)p.r(A)p.r(G)p.r(C)p.r(U)p.r(G)p.r(C)p.d(T)p.d(T)}|RNA2{r(G)p.r(C)p.r(A)p.r(G)p.r(C)p.r(U)p.r(G)p.r(U)p.r(A)p.r(C)p.r(U)p.r(C)p.r(G)p.r(G)p.r(A)p.r(C)p.r(A)p.r(C)p.r(G)p.d(T)p.d(C)}$$$RNA1{StrandType:ss}|RNA2{StrandType:as}$	54.8%
